In general, logP refers to a log measure of how a compound divides between an organic and an aqueous phase. The term logD denotes the decadic logarithm of the distribution of all forms, ionised or not, between an organic phase and buffer at a given pH.

Data set [1] is described as follows: method code SF, from DOI: 10.1016/s0960-894x(01)80459-5.
Data set [2] can be described thus: method code SF-AS, from DOI: 10.1016/s0026-895x(25)13330-0, PMID: 3162758. The conditions noted are these: pH 4.5.
Assay in data set [3]: not given
This is another data set of the same source.

The nature of data set [4]: method code SF, from DOI: 10.1021/jm020886c, PMID: 12852752. The conditions noted are these: pH 7.4.
Data set [5] in a line: method code SF-AS, from Zhang, L.; Fu, G.; Wan, Y. (2014). Determination of verbascoside and its oil-water partition coefficient by ultraviolet spectrophotometry. Shipin Anquan ZhiliangJjiance Xuebao, 5(2)528-532.
Assay in data set [6]: not given
This is another data set of the same source.

Data set [7] in a line: method code SF-RC, from DOI: 10.1016/j.nucmedbio.2016.01.003, PMID: 27067043. The conditions noted are these: pH 7.4.
Data set [8] in a line: method code SF-HPLC, from DOI: 10.1016/j.ejps.2006.07.007, PMID: 16997537. The conditions noted are these: pH 7.4.
The nature of data set [9]: method code SF-AS, from DOI: 10.1021/ja00198a050.
Data set [10] is described as follows: method code SF, from DOI: 10.1016/0006-2952(92)90292-q, PMID: 1371213. The conditions noted are these: pH 7.4.
Assay in data set [11]: not given
This is another data set of the same source.

Assay in data set [12]: not given
This is another data set of the same source.

Data set [13] is described as follows: method code SF-EIA, from DOI: 10.1016/s0022-2275(20)42614-8, PMID: 2280184. The conditions noted are these: pH 1.0.
Assay in data set [14]: not given
The source holds these as a separate data set.

Data set [15] is described as follows: method code SF-HPLC, from Xiong, Ð. (2009). Apparent partiton coefficient of hawthorn leaf flavonoids in phospholipids complex. Chinese Traditional Patent Medicine, 31(7)1075-1078.
The nature of data set [16]: method code SF-RC, from DOI: 10.1021/jm00392a008, PMID: 3625705.
Data set [17] in a line: method code SF, from DOI: 10.1021/jm00088a010, PMID: 1350310.
The nature of data set [18]: method code SF-AS, from DOI: 10.1111/j.1476-5381.1987.tb08980.x, PMID: 3036289. The conditions noted are these: pH 7.4.
A short description of data set [19]: method code SF-HPLC, from DOI: 10.1002/jlac.1995199512306.
Data set [20] is described as follows: method code SF-AS, from DOI: 10.1021/jm00371a014, PMID: 6716401. The conditions noted are these: pH 7.4.
Assay in data set [21]: not given
This is another data set of the same source.

A short description of data set [22]: method code SF-HPLC, from DOI: 10.1021/js950484a, PMID: 9002474. The conditions noted are these: pH 7.4.
Data set [23] in a line: method code SF-HPLC, from DOI: 10.1248/cpb.38.1906, PMID: 2268893. The conditions noted are these: pH 6.9.
Assay in data set [24]: not given
This is another data set of the same source.

Data set [25] in a line: method code SF-HPLC, from DOI: 10.1016/j.ejps.2010.08.004, PMID: 20728535.
Assay in data set [26]: not given
The source holds these as a separate data set.

Data set [27] is described as follows: method code SF, from DOI: 10.1021/jm00169a014, PMID: 2362268. The conditions noted are these: pH 7.4.
Data set [28] in a line: method code SF-AS, from DOI: 10.1016/j.ejmech.2010.02.047, PMID: 20227799. The conditions noted are these: pH 7.4.
The nature of data set [29]: method code SF, from DOI: 10.1021/jm950645n, PMID: 8576912.
Data set [30] is described as follows: method code SF-AS, from DOI: 10.1016/j.ejmech.2009.02.028, PMID: 19321234.
Data set [31] can be described thus: method code SF-RC, from DOI: 10.1023/a:1015867608405, PMID: 1614980. The conditions noted are these: pH 7.4.
Data set [32] is described as follows: method code SF-HPLC, from Yao, Y.; Liao, Q.; Zeng, L.; Zhang, L.; Ma, Y.; Zeng, Y. (2009). Determination of the apparent oil-water partition coeffcient of neoandrographolide and effect of pH. Pharmacy Today, 19(10)8-10. The conditions noted are these: pH 6.0.

Square brackets hold non-standard residues; d marks the D form. Peptide text beside a SMILES is read from it. NMeF = CN[CH](Cc1ccccc1)C(=O)O

Compound `CCCCCCOP(=O)(OCC1CC(O)C(n2cnc3c(N)ncnc32)O1)OCC1OC(n2cc(C)c(=O)[nH]c2=O)CC1N=[N+]=[N-]` (stereo not drawn) had a logP in [1] of 1.11.
Turning to `CC(C)C[C@H](NC(=O)Cc1ccc(C(=O)O)c(OCCF)c1)c1ccccc1N1CCCCC1`, the logP came to 2.39.
`COc1cc([C@@H]2c3cc4c(cc3[C@@H](O[C@@H]3O[C@@H]5CO[C@@H](c6cccs6)O[C@H]5[C@H](O)[C@H]3O)[C@H]3COC(=O)[C@H]23)OCO4)cc(OC)c1O` yielded a logD in data set [2] of 1.8.
`CCCN(CCCCN1C(=O)CC2(CCCC2)C(O)C1=O)C1COc2cccc(OC)c2C1` (stereo not drawn) displayed a logP in data set [3] of 4.1.
For the compound `Cc1ccc(CCOCCCS(=O)(=O)CCNCCc2ccc(O)c3[nH]c(=O)sc23)cc1-c1nccs1`, in data set [4], the pH-dependent lipophilicity (logD) was 1.44.
`C[C@@H]1O[C@@H](OC2[C@@H](O)C(OCCc3ccc(O)c(O)c3)OC(CO)[C@H]2OC(=O)/C=C/c2ccc(O)c(O)c2)[C@H](O)C(O)C1O` (stereo partly drawn): in [5], the logP is -0.57.
Consider `CCCCCCCCc1ccc(OCC(=O)Cn2cc(C(C)=O)c3cc(C(=O)O)ccc32)cc1`, for which, in data set [6], the logP turned out to be 5.8.
Turning to `C=CC(=O)NCCCC[C@H](NC(=O)Cc1ccccc1)C(=O)N1CCN(c2cccc(C)n2)CC1`, in data set [7], the pH-dependent lipophilicity (logD) was found to be 2.09.
On to `CCN(CC)C(=O)COC(=O)C1OC(Oc2cc3oc(-c4ccc(O)cc4)cc(=O)c3c(O)c2O)C(O)C(O)C1O` (stereo not drawn), for which, in [8], the log distribution coefficient (logD) was determined as 1.48.
`CC(C)(C)c1ccc2c(c1)OCCOCCOCCOCCOCCOCCOCCOCCOCCO2` gave a logP in [9] of 1.69.
`CN(CC(=O)N[C@@H]1CC[C@@]2(O)[C@H]3Cc4ccc(O)c5c4[C@@]2(CCN3CC2CC2)[C@H]1O5)c1ccc([N+](=O)[O-])c2nonc12`: in data set [10], the logD was found to be 1.
`COC(=O)CC(O)CC(O)C=Cn1c(C(C)C)nc(-c2cccc(Br)c2)c1-c1ccc(F)cc1` (stereo not drawn) yielded a logP in data set [11] of 2.8.
Turning to `CC(=O)OC1C(c2ccc(=O)oc2)[C@@]2(C)CC[C@H]3[C@@H](CC[C@@H]4CC(O)CC[C@@]43C)[C@]23OC13` (stereo partly drawn), the log partition coefficient (logP) in data set [12] is 3.27.
For `C[C@H](CCC(=O)NCC(=O)O)[C@H]1CC[C@H]2[C@@H]3C[C@H](O)[C@@H]4C[C@H](O)CC[C@]4(C)[C@H]3CC[C@]12C`, the logD in data set [13] is 2.15.
As to `Cc1c(O)cccc1C(=O)N[C@@H](CSc1ccccc1)[C@H](O)CN1C[C@H]2CCCC[C@H]2C[C@H]1C(=O)NC(C)(C)C`, in data set [14], the lipophilicity (logP) came to 4.
In the case of `C[C@@H]1O[C@@H](O[C@@H]2[C@@H](O)[C@H](O)[C@@H](CO)O[C@H]2c2c(O)cc(O)c3c(=O)cc(-c4ccc(O)cc4)oc23)[C@H](O)[C@H](O)[C@H]1O`, the logP in data set [15] was -0.92.
Take `CC/C=C\C/C=C\C/C=C\CCCCCCCC(=O)OCC(COC(=O)CCCN)OC(=O)CCCN` (stereo not drawn): the lipophilicity (logP) in [16] is 0.33.
For the compound `O=C(COc1ccc(OCCNCC(O)COc2ccccc2)cc1)N1CCc2ccccc2C1` (stereo not drawn), in data set [17], the logP is 3.6.
For the compound `C[C@@H]1O[C@@H](O[C@H]2C[C@@H](O)[C@]3(CO)[C@H]4[C@H](O)C[C@]5(C)[C@@H]([C@@H]6COC(=O)C6)CC[C@]5(O)[C@@H]4CC[C@]3(O)C2)[C@H](O)[C@H](O)[C@H]1O`, the logD in [18] was -0.7.
`Cc1cn(C2CC(N=[N+]=[N-])C(COP(=O)(OCc3ccc(Cl)cc3)OCC3OC(n4cc(C)c(=O)[nH]c4=O)CC3N=[N+]=[N-])O2)c(=O)[nH]c1=O` (stereo not drawn) showed a logP in data set [19] of 2.06.
`COc1cccc2c1C(=O)c1c(O)c3c(c(O)c1C2=O)CC(O)(C(C)=O)CC3OC1CC(N2CCOCC2C#N)C(O)C(C)O1` (stereo not drawn) yielded a logD in [20] of 2.59.
`O=C(CCCCCCCCCCn1ccnc1[N+](=O)[O-])Nc1ccc(-c2nc3ccccc3s2)cc1` yielded a log partition coefficient (logP) in data set [21] of 1.99.
`CCCCCCCC/C=C\CCCCCCCC(=O)NCc1ccc(O)c(OC)c1`: the logD in data set [22] is 8.02.
The compound `CCOC(=O)OCCC(SC(=O)OCC)=C(C)N(C=O)CC1=C(C(=O)OCOC(=O)C(C)(C)C)N2C(=O)C(NC(=O)C(=NOC)c3csc(N)n3)C2SC1` (stereo not drawn) showed a logD in data set [23] of 3.34.
The compound `CCCN(CCC)C(=O)Cc1c(-c2ccc(OC(=O)NCCc3ccc(O)c(O)c3)cc2)nc2c(Cl)cc(Cl)cn12` had a lipophilicity (logP) in data set [24] of 4.79.
In turn, `CCCCCCCCCCCCCCCCCC(=O)OC[C@@H]1O[C@H](n2ccc(N)nc2=O)CS1` yielded a logP in data set [25] of 1.82.
In data set [26], `CC(C)(C)OC(=O)NC(Cc1ccccc1)C(=O)N1CCCC1C(=O)NCc1ccc(N)cc1` (stereo not drawn) showed a logP of 2.34.
In data set [27], `C=C1[C@@H](C)[C@H]2[C@H](Cc3ccccc3)NC(=O)[C@]23OC(=O)/C=C\[C@H](O)CCC[C@@H](C)C/C=C/[C@H]3[C@@H]1O` came in with a log distribution coefficient (logD) of 3.37.
Regarding `COc1ccc(-c2oc3cc(C(C)=O)cc(OC)c3c(=O)c2-c2ccc(-c3ccccc3)cc2)cc1OC`, the log distribution coefficient (logD) in [28] came to 3.95.
As to `C#CCN(Cc1ccc2[nH]c(C)nc(=O)c2c1)c1ccc(C(=O)NCc2cccc([N+](=O)[O-])c2)cc1`, in [29], the lipophilicity (logP) came out at 3.7.
In turn, `CCCCCCCCCCCCCC(=O)NC(C(=O)Nc1ccn(C2OC(CO)C(O)C2O)c(=O)n1)c1ccc(O)cc1` (stereo not drawn) yielded a log partition coefficient (logP) in data set [30] of 0.9.
In [31], `CC(=O)NC(Cc1ccccc1)C(=O)N(C)C(Cc1ccccc1)C(=O)N(C)C(Cc1ccccc1)C(N)=O` (stereo not drawn) (Ac-Phe-[NMeF]-[NMeF]-NH2; configuration not given here) gave a logD of 2.53.
As for `C=C1CC[C@@H]2[C@](C)(CO[C@@H]3O[C@H](CO)[C@@H](O)[C@H](O)[C@H]3O)CCC[C@@]2(C)[C@@H]1CCC1=CCOC1=O`, the log distribution coefficient (logD) in data set [32] stood at 0.44.
